Entries after “also recorded” stand apart in the source; their conditions may differ.
Legend:
arachidonic acid release = details: cited from earlier work
5-LO [1] = biological target: T1, 5-LO (Homo sapiens, UniProt P09917); parameters: endogenous in cells; host or cells: human polymorphonuclear leukocytes (PMNL) isolated from whole blood; method as in PMID 22347509; details: cited from earlier work
T1 sequence (P09917 1-674): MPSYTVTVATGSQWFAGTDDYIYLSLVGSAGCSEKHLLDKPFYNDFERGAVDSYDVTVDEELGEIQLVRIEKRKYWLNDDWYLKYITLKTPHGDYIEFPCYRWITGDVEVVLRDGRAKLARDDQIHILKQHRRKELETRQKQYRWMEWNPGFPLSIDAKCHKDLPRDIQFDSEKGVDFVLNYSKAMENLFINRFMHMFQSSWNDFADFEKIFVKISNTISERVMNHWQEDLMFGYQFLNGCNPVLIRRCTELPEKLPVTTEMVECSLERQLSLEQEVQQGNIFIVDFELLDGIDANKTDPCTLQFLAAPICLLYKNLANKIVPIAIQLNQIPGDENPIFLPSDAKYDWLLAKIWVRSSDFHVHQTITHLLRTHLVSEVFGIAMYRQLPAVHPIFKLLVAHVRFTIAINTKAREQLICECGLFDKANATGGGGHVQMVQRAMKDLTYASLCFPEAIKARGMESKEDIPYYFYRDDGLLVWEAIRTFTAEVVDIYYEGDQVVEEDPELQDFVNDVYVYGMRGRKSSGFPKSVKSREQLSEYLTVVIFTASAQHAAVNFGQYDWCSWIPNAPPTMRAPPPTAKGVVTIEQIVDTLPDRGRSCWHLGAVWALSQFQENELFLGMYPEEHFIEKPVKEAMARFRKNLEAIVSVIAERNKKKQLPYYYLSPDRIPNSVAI

5-LO [2] = biological target: T1, 5-LO; experiment: Biosynthesis of 5-LO products in HEK293 cells expressing 5-LO and FLAP (A23187 + arachidonic acid); assay type: cell-based; parameters: expressed in transfected cells; host or cells: HEK293; details: 1 μM compound, 10 μM A23187 + 10 μM arachidonic acid, 15 min
Description: HEK293 cells expressing both 5-LO and the 5-lipoxygenase activating protein (FLAP) were generated as previously reported. For cell stimulation of 5-LO products, transfected HEK293 cells were collected following trypsinization and washed and the cell pellet was resuspended in Hank's balanced salt solution (HBSS, Lonza) containing 1.6 mM CaCl2 at a concentration of 5 × 10^5 cells/ml. Cells were preincubated with each compound at the indicated concentration for 5 min at 37°C. Cells were then stimulated for 15 minutes at 37°C with the addition of 10 μM calcium ionophore A23187 (Sigma-Aldrich) and 10 μM arachidonic acid (Cayman Chemical). Stimulations were stopped by adding 0.5 volume of cold MeOH:MeCN (1 : 1) containing 100 ng/ml of 19-OH prostaglandin B2 (PGB2) as internal standard. Samples were then processed and 5-LO products were analyzed by reversed-phase high-performance liquid chromatography (RP-HPLC) as described previously.
To evaluate CAPE analogues as potential inhibitors of the biosynthesis of 5-LO products, a first series of experiments was performed in HEK293 cells expressing both 5-LO and FLAP as previously described. HEK293 cells were first preincubated with the test compounds (1 μM), then stimulated in the presence of arachidonic acid and calcium ionophore A23187 to induce the biosynthesis of 5-LO products (Figure 2(a)). […] Based on these criteria, compounds 9, 13, 14, 15, 16, and 19 were selected for subsequent analyses.
Figure 2 Effect of the test compounds on the biosynthesis of 5-LO products in transfected HEK293 cells (a) and thapsigargin-stimulated PMNL (b). (a) HEK293 cells expressing both 5-LO and FLAP were incubated in presence of the indicated compounds (1 μM) or their diluent (control, 0.5% DMSO) for 5 min, then biosynthesis of 5-LO products was initiated with the addition of 10 μM calcium ionophore A23187 and 10 μM arachidonic acid for 15 min. After stimulation, reactions were stopped and samples were processed for analysis of 5-LO products by RP-HPLC. Total 5-LO products measured represent the sum of LTB4, its trans isomers, and 5-hydroxyeicosatetraenoic acid. (b) Freshly isolated human PMNL were incubated in presence of test compounds (or their diluent control, DMSO 0.5%) at the indicated concentrations for 5 min. Biosynthesis of the 5-LO products was initiated with the addition of 1 μM of thapsigargin, followed by a 15 min incubation period at 37°C. The stimulation was then stopped and samples were processed for RP-HPLC analysis and total 5-LO products quantification. Total 5-LO products measured represent the sum of LTB4, its trans isomers, 20-COOH- and 20-OH-LTB4 and 5-hydroxyeicosatetraenoic acid. Data are expressed as means ± SEM of at least 3 independent experiments. ^∗Different from control, as determined by one-way ANOVA with Dunnett's multiple comparison test (p < 0.05).

CC(c1cc2ccccc2s1)N(O)C(N)=O (stereo not shown) [Zileuton (1), zileuton, reference compound]
Inhibition of liberation of cellular arachidonic acid (previously shown) (arachidonic acid release): previously shown to inhibit the liberation of cellular arachidonic acid | Inhibition of biosynthesis of 5-LO products in whole blood (previous studies) (5-LO [1]): slightly better inhibitor of the biosynthesis of 5-LO products in whole blood than CAPE (2) | Inhibition of biosynthesis of 5-LO products in transfected HEK293 cells (5-LO [2]): less effective than the selected compounds; also recorded: significantly inhibited the biosynthesis of 5-LO products

CCOC(=O)/C=C/c1ccc(O)c(O)c1 [Compound 4, ethyl caffeate]
Inhibition of biosynthesis of 5-LO products in transfected HEK293 cells (5-LO [2]): without inhibitory activity

O=C(/C=C/c1ccc(O)c(O)c1)OCc1ccccc1 [Compound 11]
Inhibition of biosynthesis of 5-LO products in transfected HEK293 cells (5-LO [2]): not as effective at inhibiting 5-LO as CAPE (2)

COC(=O)/C=C/c1ccc(O)c(O)c1 [Compound 3]
Inhibition of biosynthesis of 5-LO products in transfected HEK293 cells (5-LO [2]): without inhibitory activity

O=C(/C=C/c1ccc(O)c(O)c1)Oc1ccccc1 [Compound 10]
Inhibition of biosynthesis of 5-LO products in transfected HEK293 cells (5-LO [2]): not as effective at inhibiting 5-LO as CAPE (2)
